“And” between values parts separate entries of the source, which are not always exact repeats. Equal values may be shown once. Where a name gives a salt, the structure may show the parent alone.
System: 5-HT release in the rat prefrontal cortex
Assay: Microdialysis: 5-HT release in prefrontal cortex after I.P. administration
Assay type: in vivo
Conditions: for 5-HT release (% of basal levels) measured in dialysates: individual animals, hydrochloride, 3 mg/kg; for 5-HT release (% of basal levels) measured in dialysates, MEAN / 5-HT (% of respective basal) MEAN: n = 8; for 5-HT (% of respective basal) MEAN: SON-117 group 0.1 mg/kg I.P.
Experimental: The aim of the study was to evaluate, using microdialysis, the effects of an intraperitoneal (I.P.) administration in rats of three different doses of SON-117 on dopamine and its metabolites, serotonin and its metabolite (5-HIAA), and norepinephrine levels in prefrontal cortex.
Thirty-two adult male Wistar rats were used for the whole study (4 groups of eight animals planned for the study, Table 1).
Surgery was performed on rats weighing about 300 g at the beginning of the experiments. Rats were anaesthetized with Ketamine (50 mg/kg) & Xylazine (15 mg/kg) by intramuscular administration. The animals were placed in a stereotaxic apparatus in the flat-skull position at a constant setting of −3.3 mm between ear bars and the incisor bar. The animals were treated with a local anesthesic (xylocaine 1%, Astra Zeneca) and an analgesic (Temgesic, from Schering Plough, 0.05 mg/kg, s.c.). A rostrocaudal midline incision was made with a lancet to expose the dorsal skull surface. The “stereotaxic zero” was defined by the Bregma in accordance with Paxinos and Watson's atlas (1986). A hole was drilled in the skull with a drill and the meninges were pierced with a sterile needle to implant a CMA12 guide cannula which later received the dialysis probe.
Coordinates used for implanting guide cannula in prefrontal cortex from Bregma were anteroposterior 3.7 mm, mediolateral 0.8 mm, and dorsoventral −2 mm (top of the probe was at −5 mm). The guide cannula was fixed to the skull with two stainless steel screws (1.88 mm outside diameter) anchored. An application of dental cement was added. A plastic collar allowed each animal to be tethered to a Swivel assembly of the CMA 120 awake animal system. Following surgery, rats were kept in individual cages and allowed to recover for a minimum of 3-5 days before the experimentation. The rats were handled and put in plastic bowl for 10 min at least every day to habituate the animals to their new environment for the dialysis. An I.P. administration with saline was also performed every day.
Dialysis probes (CMA12/3 mm, membrane, 20 kD cut-off, Carnegie Medicine, Stockholm, Sweden), were carefully washed before inserting into the guide cannula. The wash was performed with the artificial cerebrospinal fluid (aCSF) medium (NaCl 147 mM, KCl 2.7 mM, CaCl2 1.2 mM, MgCl2 0.85 mM) at room temperature. The dialysis system was then equilibrated at 20° C. at a perfusion rate of 1 μl/min with a Carnegie pump (CMA100). All catheters (FEP tubing, internal volume of 1.2 μl/10 cm, and tubing adaptors) used for microdialysis were treated in the same conditions.
The probes duly prepared were inserted into the guide cannula and the CMA120 Swivel assembly secured to the animal using a plastic collar. Flow through the dialysis probe with aCSF was maintained at a rate of 1 μl/min during the whole experimentation. The first four fractions (corresponding to 2 hours) were discarded to avoid the effects of parenchymal disturbance and to ensure that an approximate steady-state level was reached. Fractions were then collected over a period of 8.5 h during which time the animals remained quiet. The dialysates were automatically collected with an autosampler (microfraction collector CMA 140, Carnegie Medicin) and stored at −80° C. until analysis. […] Perfusion was then maintained for 7 hours with aCSF. The dialysates (30 μl) were collected into 300 μl vials, transferred into dry ice and then kept frozen (−80° C.) until analysis. Frozen samples were shipped to a partner for analysis. At the end of the microdialysis study, a PBS with colored ink was perfused through the probe in order to visualize the dialyzed area.
Catecholamine assay: Concentrations of dopamine, DOPAC, HVA, 5-HIAA, 5-HT, and norepinephrin were determined for each sample by HPLC coupled with electrochemical detection. […]

[1] = SON-117 3 mg/kg IP, T1 h 30-T2 h
[2] = SON-117 3 mg/kg IP, T1 h-T1 h 30
[3] = SON-117 3 mg/kg IP, T2 h 30-T3 h
[4] = SON-117 3 mg/kg IP, T2 h-T2 h 30
[5] = SON-117 3 mg/kg IP, T3 h 30-T4 h
[6] = SON-117 3 mg/kg IP, T3 h-T3 h 30
[7] = SON-117 3 mg/kg IP, T4 h 30-T5 h
[8] = SON-117 3 mg/kg IP, T4 h-T4 h 30
[9] = SON-117 3 mg/kg IP, T5 h 30-T6 h
[10] = SON-117 3 mg/kg IP, T5 h-T5 h 30
[11] = SON-117 3 mg/kg IP, T6 h 30-T7 h
[12] = SON-117 3 mg/kg IP, T6 h-T6 h 30
[13] = SON-117 3 mg/kg IP, T-1 h 30-T-1 h (pre-administration)

With `Cc1nnc(-c2cc3c(OC[C@@H](O)CN4CCC(c5ccc(Cl)c(Cl)c5)CC4)cccc3o2)o1` [SON-117, (S)-1-(4-(3,4-dichlorophenyl)piperidino)-3-(2-(5-methyl-1,3,4-oxadiazol-2-yl)benzo(b)furan-4-yloxy)-2-propanol hydrochloride] the “5-HT release (% of basal levels) measured in dialysates” value (SON-117 3 mg/kg IP, T30-T1 h) was 204.22 % of basal levels and 162.26 % of basal levels and 105.16 % of basal levels and 123.52 % of basal levels and 121.85 % of basal levels and 66.82 % of basal levels and 90.61 % of basal levels and 103.58 % of basal levels, the “5-HT release (% of basal levels) measured in dialysates, MEAN” value (shortened to “5-HT release (% of basal levels) … MEAN”) [1] was 172.47 % of basal levels and the “5-HT release (% of basal levels) measured in dialysates” value [1] was 272.64 % of basal levels and 219.61 % of basal levels and 141.23 % of basal levels and 159.07 % of basal levels and 135.20 % of basal levels and 206.96 % of basal levels and 105.40 % of basal levels and 139.63 % of basal levels. The “5-HT release (% of basal levels) … MEAN” value [2] was 139.57 % of basal levels, the “5-HT release (% of basal levels) measured in dialysates” value [2] was 205.53 % of basal levels and 81.50 % of basal levels and 112.86 % of basal levels and 110.90 % of basal levels and 126.82 % of basal levels and 127.44 % of basal levels and 170.45 % of basal levels and 181.06 % of basal levels and the “5-HT release (% of basal levels) … MEAN” value [3] was 134.29 % of basal levels. For the same compound, the “5-HT release (% of basal levels) measured in dialysates” value [3] was 158.52 % of basal levels and 136.53 % of basal levels and 84.73 % of basal levels and 118.94 % of basal levels and 141.58 % of basal levels and 105.71 % of basal levels and 168.18 % of basal levels and 160.12 % of basal levels, the “5-HT release (% of basal levels) … MEAN” value [4] was 134.68 % of basal levels and the “5-HT release (% of basal levels) measured in dialysates” value [4] was 125.58 % of basal levels and 163.25 % of basal levels and 90.55 % of basal levels and 143.00 % of basal levels and 145.36 % of basal levels and 158.14 % of basal levels and 116.88 % of basal levels. The “5-HT release (% of basal levels) … MEAN” value [5] was 122.79 % of basal levels, the “5-HT release (% of basal levels) measured in dialysates” value [5] was 112.86 % of basal levels and 166.51 % of basal levels and 77.19 % of basal levels and 149.84 % of basal levels and 120.64 % of basal levels and 72.84 % of basal levels and 159.63 % of basal levels and the “5-HT release (% of basal levels) … MEAN” value [6] was 131.57 % of basal levels. For the same compound, the “5-HT release (% of basal levels) measured in dialysates” value [6] was 178.23 % of basal levels and 97.99 % of basal levels and 78.86 % of basal levels and 198.09 % of basal levels and 131.52 % of basal levels and 75.85 % of basal levels and 160.43 % of basal levels, the “5-HT release (% of basal levels) … MEAN” value [7] was 263.96 % of basal levels and the “5-HT release (% of basal levels) measured in dialysates” value [7] was 119.63 % of basal levels and 88.15 % of basal levels and 75.09 % of basal levels and 174.97 % of basal levels and 117.70 % of basal levels and 1179.79 % of basal levels and 92.36 % of basal levels. The “5-HT release (% of basal levels) … MEAN” value [8] was 118.76 % of basal levels, the “5-HT release (% of basal levels) measured in dialysates” value [8] was 40.46 % of basal levels and 171.66 % of basal levels and 76.54 % of basal levels and 186.25 % of basal levels and 112.71 % of basal levels and 98.26 % of basal levels and 145.41 % of basal levels and the “5-HT release (% of basal levels) … MEAN” value [9] was 150.50 % of basal levels. The “5-HT release (% of basal levels) measured in dialysates” value [9] was 121.53 % of basal levels and 146.21 % of basal levels and 238.25 % of basal levels and 159.31 % of basal levels and 72.12 % of basal levels and 135.51 % of basal levels and 180.58 % of basal levels, the “5-HT release (% of basal levels) … MEAN” value [10] was 176.38 % of basal levels and the “5-HT release (% of basal levels) measured in dialysates” value [10] was 118.62 % of basal levels and 189.63 % of basal levels and 161.82 % of basal levels and 191.70 % of basal levels and 132.84 % of basal levels and 100.25 % of basal levels and 410.45 % of basal levels and 105.75 % of basal levels. For the same compound, the “5-HT release (% of basal levels) … MEAN” value [11] was 172.13 % of basal levels, the “5-HT release (% of basal levels) measured in dialysates” value [11] was 146.14 % of basal levels and 156.41 % of basal levels and 213.64 % of basal levels and 136.73 % of basal levels and 298.30 % of basal levels and 107.87 % of basal levels and 145.86 % of basal levels and the “5-HT release (% of basal levels) … MEAN” value [12] was 156.40 % of basal levels. For the same compound, the “5-HT release (% of basal levels) measured in dialysates” value [12] was 135.63 % of basal levels and 218.45 % of basal levels and 123.22 % of basal levels and 169.93 % of basal levels and 132.54 % of basal levels and 87.76 % of basal levels and 130.92 % of basal levels and 252.75 % of basal levels, the “5-HT release (% of basal levels) … MEAN” value (SON-117 3 mg/kg IP, T-30 min-T0 (pre-administration)) was 97.07 % of basal levels and the “5-HT release (% of basal levels) … MEAN” value [13] was 101.16 % of basal levels. The “5-HT release (% of basal levels) measured in dialysates” value [13] was 104.98 % of basal levels and 84.68 % of basal levels and 89.82 % of basal levels, the “5-HT release (% of basal levels) … MEAN” value (SON-117 3 mg/kg IP, T-1 h-T-30 min (pre-administration)) was 102.92 % of basal levels and the “5-HT concentrations in prefrontal cortex, significant increase, max.” value (SON-117 3 mg/kg IP, from 2 h to 3 h) was 175%. The “5-HT concentrations in prefrontal cortex, significant increase” value (SON-117 3 mg/kg IP, from 5.5 h to 7 h) was 272%, the “5-HT release, increase still present” value (SON-117 3 mg/kg, 7 h after administration) was 183% and the “levels of 5-HT compared to the citalopram treated group (significant)” value (SON-117 3 mg/kg, at 1 h) was “slightly lower”. For the same compound, the “5-HT release, maximum increase observed” value (SON-117 3 mg/kg, at 5 h) was 272%, the “levels of 5-HT compared to the citalopram treated group (significant)” value (SON-117 3 mg/kg, at 5 h and 7 h) was “higher” and the “5-HT (% of respective basal) MEAN” value (T0-T30 min) was 128.89 % of respective basal. For the same compound, the “5-HT (% of respective basal) MEAN” value (T30-T1 h) was 123.42 % of respective basal, the “5-HT (% of respective basal) MEAN” value (T1 h 30-T2 h) was 167.52 % of respective basal and the “5-HT (% of respective basal) MEAN” value (T1 h-T1 h 30) was 176.03 % of respective basal. For the same compound, the “5-HT (% of respective basal) MEAN” value (T2 h 30-T3 h) was 215.80 % of respective basal, the “5-HT (% of respective basal) MEAN” value (T2 h-T2 h 30) was 370.70 % of respective basal and the “5-HT (% of respective basal) MEAN” value (T3 h 30-T4 h) was 151.83 % of respective basal. For the same compound, the “5-HT (% of respective basal) MEAN” value (T3 h-T3 h 30) was 156.53 % of respective basal, the “5-HT (% of respective basal) MEAN” value (T4 h 30-T5 h) was 296.70 % of respective basal and the “5-HT (% of respective basal) MEAN” value (T4 h-T4 h 30) was 350.16 % of respective basal. For the same compound, the “5-HT (% of respective basal) MEAN” value (T5 h 30-T6 h) was 250.07 % of respective basal, the “5-HT (% of respective basal) MEAN” value (T5 h-T5 h 30) was 310.25 % of respective basal and the “5-HT (% of respective basal) MEAN” value (T6 h 30-T7 h) was 253.10 % of respective basal. For the same compound, the “5-HT (% of respective basal) MEAN” value (T6 h-T6 h 30) was 254.62 % of respective basal, the “5-HT (% of respective basal) MEAN” value (T-30 min-T0 (before administration)) was 112.68 % of respective basal and the “5-HT (% of respective basal) MEAN” value (T-1 h 30-T-1 h (before administration)) was 80.63 % of respective basal. For the same compound, the “5-HT (% of respective basal) MEAN” value (T-1 h-T-30 min (before administration)) was 106.27 % of respective basal.

Source: patent US20250109127A1, “METHODS OF USE OF PHENOXYPROPYLAMINE COMPOUNDS TO TREAT DEPRESSION” (Minerva Neurosciences, Inc., priority 2013, published 2025)
